Patent US20120213758A1, “BIARYL PDE4 INHIBITORS FOR TREATING PULMONARY AND CARDIOVASCULAR DISORDERS” (DeCODE Genetics enf, priority 2007, published 2012)
pIC50: −log10 of the molar value. Where a name gives a salt, the structure may show the parent alone. Read-outs that look alike come from different tables or passages of the source.

How the values were obtained:
hPDE4B = hPDE4B (Homo sapiens, UniProt Q07343); test: In-vitro real-time enzyme-coupled spectrophotometric assay for PDE4 enzymes (hPDE4B)
hPDE4D = hPDE4D (Homo sapiens, UniProt Q08499); test: In-vitro real-time enzyme-coupled spectrophotometric assay for PDE4 enzymes (hPDE4D)
[1] = read-out: hPDE4B activity, enzyme-coupled NADH assay, absorbance at 340 nm
[2] = read-out: hPDE4D activity, enzyme-coupled NADH assay, absorbance at 340 nm

Chain of hPDE4B (Q07343 whole entry): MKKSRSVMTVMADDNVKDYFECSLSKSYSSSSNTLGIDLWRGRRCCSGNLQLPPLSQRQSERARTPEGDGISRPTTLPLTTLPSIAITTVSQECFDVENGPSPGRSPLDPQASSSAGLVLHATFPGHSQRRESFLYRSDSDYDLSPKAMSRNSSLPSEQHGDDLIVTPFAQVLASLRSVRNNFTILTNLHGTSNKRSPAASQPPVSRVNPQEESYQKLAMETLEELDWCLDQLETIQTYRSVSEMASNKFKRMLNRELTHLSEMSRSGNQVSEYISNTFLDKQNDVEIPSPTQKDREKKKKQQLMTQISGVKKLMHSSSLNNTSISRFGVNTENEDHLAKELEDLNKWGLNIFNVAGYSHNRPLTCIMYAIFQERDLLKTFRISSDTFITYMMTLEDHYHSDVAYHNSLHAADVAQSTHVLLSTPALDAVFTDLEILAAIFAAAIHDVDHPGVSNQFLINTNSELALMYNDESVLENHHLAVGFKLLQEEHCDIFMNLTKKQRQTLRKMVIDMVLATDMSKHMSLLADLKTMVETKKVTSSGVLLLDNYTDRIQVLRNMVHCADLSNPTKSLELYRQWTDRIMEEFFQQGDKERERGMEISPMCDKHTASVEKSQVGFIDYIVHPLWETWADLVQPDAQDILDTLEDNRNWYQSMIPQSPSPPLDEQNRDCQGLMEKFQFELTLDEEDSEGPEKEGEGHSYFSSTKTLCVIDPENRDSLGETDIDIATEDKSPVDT
Chain of hPDE4D (Q08499 whole entry): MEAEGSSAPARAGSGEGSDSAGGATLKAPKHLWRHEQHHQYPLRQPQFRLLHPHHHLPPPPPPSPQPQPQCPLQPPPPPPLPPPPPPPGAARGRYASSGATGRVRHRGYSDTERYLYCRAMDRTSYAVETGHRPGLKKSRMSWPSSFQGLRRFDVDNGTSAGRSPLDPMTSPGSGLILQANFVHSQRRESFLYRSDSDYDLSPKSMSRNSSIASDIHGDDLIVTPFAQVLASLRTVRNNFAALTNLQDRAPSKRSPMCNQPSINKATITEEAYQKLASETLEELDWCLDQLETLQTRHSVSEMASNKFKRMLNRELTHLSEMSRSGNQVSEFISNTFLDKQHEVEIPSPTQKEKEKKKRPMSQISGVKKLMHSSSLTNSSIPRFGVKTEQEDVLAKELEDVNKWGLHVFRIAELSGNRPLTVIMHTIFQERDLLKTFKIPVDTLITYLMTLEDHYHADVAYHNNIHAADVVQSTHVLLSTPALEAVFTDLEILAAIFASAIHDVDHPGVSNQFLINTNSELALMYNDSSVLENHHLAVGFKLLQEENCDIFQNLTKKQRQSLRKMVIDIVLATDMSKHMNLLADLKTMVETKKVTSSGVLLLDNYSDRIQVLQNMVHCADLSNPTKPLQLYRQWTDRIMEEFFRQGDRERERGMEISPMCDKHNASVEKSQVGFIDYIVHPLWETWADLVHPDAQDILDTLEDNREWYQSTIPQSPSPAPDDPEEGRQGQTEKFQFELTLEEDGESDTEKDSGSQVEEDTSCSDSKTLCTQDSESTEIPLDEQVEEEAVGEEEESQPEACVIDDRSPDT

| Structure (SMILES) | pIC50 (hPDE4B) | pIC50 (hPDE4D) | pIC50 (hPDE4B; [1]) | pIC50 (hPDE4D; [2]) |
| --- | --- | --- | --- | --- |
| COc1ccc(Cc2cnc(N3CCC(C(=O)O)C3)nc2)c(F)c1-c1cccc(Cl)c1 (stereo not shown) [Example A-044, 1-[5-(3′-Chloro-2-fluoro-6-methoxy-biphenyl-3-ylmethyl)-pyrimidin-2-yl]-pyrrolidine-3-carboxylic acid] | 4.40 to 4.70 | > 5.30 | – | – |
| COc1ccc(Cc2ccc(NS(N)(=O)=O)cc2)c(F)c1-c1cccc(C(C)=O)c1 [Example A-016] | > 5.30 | > 5.30 | – | – |
| COc1ccc(Cn2cnc3c(Cl)nc(N)nc32)cc1-c1cccc([N+](=O)[O-])c1 [Example A-003, 6-Chloro-9-(6-methoxy-3′-nitro-biphenyl-3-ylmethyl)-9H-purin-2-ylamine] | 4.70 to 5.30 | > 5.30 | – | – |
| COc1ccc(Cc2ccc3cnc(C(=O)O)n3c2)c(F)c1-c1cccc(Cl)c1 [Example A-051, 6-(3′-Chloro-2-fluoro-6-methoxy-biphenyl-3-ylmethyl)-imidazo[1,5-a]pyridine-3-carboxylic acid hydrochloride] | > 5.30 | > 5.30 | – | – |
| COC(=O)[C@@H]1CCCN1c1ccc(Cc2ccc(OC)c(-c3cccc(Cl)c3)c2F)cn1 [Example A-069, (S)-1-[5-(3′-chloro-2-fluoro-6-methoxy-biphenyl-3-ylmethyl)-pyridin-2-yl]-pyrrolidine-2-carboxylic acid methyl ester] | – | > 5.30 | – | – |
| COc1ccc(C(O)c2ccc(NC(=O)NNC(C)=O)cc2)c(F)c1-c1cccc(Cl)c1 (stereo not shown) [Example A-065, 1-acetic amido-3-{4-[(3′-chloro-2-fluoro-6-methoxy-biphenyl-3-yl)-hydroxy-deutero-methyl]-phenyl}-urea] | – | – | 4.70 to 5.30 | > 5.30 |
| COc1ccc(Cc2cnc(N3CC(C(=O)O)C3)nc2)c(F)c1-c1cccc(Cl)c1 [Example A-053, 1-[5-(3′-Chloro-2-fluoro-6-methoxy-biphenyl-3-ylmethyl)-pyrimidin-2-yl]-azetidine-3-carboxylic acid] | 4.70 to 5.30 | > 5.30 | – | – |
| NC(=O)Nc1ccc(Cc2ccc(OS(=O)(=O)O)c(-c3cccc(Cl)c3)c2)cc1 [Example A-062, Sodium sulfate of [4-(3′-Chloro-6-hydroxy-biphenyl-3-ylmethyl)-phenyl]-urea] | – | – | – | > 5.30 |
| COc1ccc(Cc2ccc(N(C)CC(=O)O)nc2)cc1-c1cccc(Cl)c1 [Example A-077, {[5-(3′-chloro-6-methoxy-biphenyl-3-ylmethyl)-pyridin-2-yl]-methyl-amino}-acetic acid] | – | > 5.30 | – | – |
| FC(F)Oc1ccc(Cc2ccc(-c3nnn[nH]3)nc2)cc1-c1cccc(Cl)c1 [Example A-076, 5-(3′-Chloro-6-difluoromethoxy-biphenyl-3-ylmethyl)-2-(1H-tetrazol-5-yl)-pyridine hydrochloride salt] | > 5.30 | > 5.30 | – | – |
| COc1ccc(Cc2ccc(N3CCCC(C(=O)O)C3)nc2)c(F)c1-c1cccc(Cl)c1 (stereo not shown) [Example A-070, 5′-(3′-Chloro-2-fluoro-6-methoxy-biphenyl-3-ylmethyl)-3,4,5,6-tetrahydro-2H-[1,2′]bipyridinyl-3-carboxylic acid] | 4.70 to 5.30 | > 5.30 | – | – |
| COc1ccc(CN2C(=O)c3ccccc3S2(=O)=O)cc1-c1cccc([N+](=O)[O-])c1 [Example A-002, 2-(6-Methoxy-3′-nitro-biphenyl-3-ylmethyl)-1,1-dioxo-1,2-dihydro-1lambda*6*-benzo[d]isothiazol-3-one] | – | 4.70 to 5.30 | – | – |
| CCNC(=O)N(CC(=O)O)c1ccc(Cc2ccc(OC)c(-c3cccc(Cl)c3)c2F)cn1 [Example A-056, {1-[5-(3′-chloro-2-fluoro-6-methoxy-biphenyl-3-ylmethyl)-pyridin-2-yl]-3-ethyl-ureido}-acetic acid] | – | > 5.30 | – | – |
| COc1ccc(Cc2ccc(C(=O)O)cc2)c(F)c1-c1cccc(C(C)=O)c1 [Example A-019, 4-(3′-Acetyl-2-fluoro-6-methoxy-biphenyl-3-ylmethyl)-benzoic acid] | 4.70 to 5.30 | > 5.30 | – | – |
| COc1ccc(Cc2ccc(C(=O)O)nc2)cc1-c1cccc(Cl)c1 [Example A-071, 5-(3′-Chloro-6-methoxy-biphenyl-3-ylmethyl)-pyridine-2-carboxylic acid] | – | > 5.30 | – | – |
| COc1ccc(Cc2c(C)nn(CC(=O)O)c2C)cc1-c1cccc([N+](=O)[O-])c1 [Example A-006, [4-(6-Methoxy-3′-nitro-biphenyl-3-ylmethyl)-3,5-dimethyl-pyrazol-1-yl]-acetic acid] | 4.70 to 5.30 | > 5.30 | – | – |
| COc1ccc(Cc2ccc(NC(=O)NCCC(=O)O)cc2)c(F)c1-c1cccc(Br)c1 [Example A-023, 3-{3-[4-(3′-Bromo-2-fluoro-6-methoxy-biphenyl-3-ylmethyl)-phenyl]-ureido}-propionic acid] | – | > 5.30 | – | – |
| COC(=O)c1ccc(Cc2ccc(OC)c(-c3cccc(Cl)c3)c2)cn1 [Example A-073, 5-(3′-chloro-6-methoxy-biphenyl-3-ylmethyl)-pyridine-2-carboxylic methyl ester] | > 5.30 | > 5.30 | – | – |

| Structure (SMILES) | pIC50 (hPDE4B) | pIC50 (hPDE4D) | pIC50 (hPDE4B; [1]) | pIC50 (hPDE4D; [2]) |
| --- | --- | --- | --- | --- |
| COc1ccc(Cn2ccc(C(=O)O)cc2=O)cc1-c1cccc([N+](=O)[O-])c1 [Example A-007, 1-(6-Methoxy-3′-nitro-biphenyl-3-ylmethyl)-2-oxo-1,2-dihydro-pyridine-4-carboxylic acid] | 4.70 to 5.30 | 4.70 to 5.30 | – | – |
| COc1ccc(Cc2nnn[nH]2)c(F)c1-c1cccc(Cl)c1 [Example A-058, 5-(3′-Chloro-2-fluoro-6-methoxy-biphenyl-3-ylmethyl)-1H-tetrazole] | 4.40 to 4.70 | 4.70 to 5.30 | – | – |
| COc1ccc(Cc2ccc3nc(C(=O)O)cn3c2)c(F)c1-c1cccc(Cl)c1 [Example A-043, 6-(3′-Chloro-2-fluoro-6-methoxy-biphenyl-3-ylmethyl)-imidazo[1,2-a]pyridine-2-carboxylic acid] | 4.70 to 5.30 | > 5.30 | – | – |
| COc1ccc(Cc2ccc(C(=O)N3CCC(C(=O)O)CC3)nc2)c(F)c1-c1cccc(Cl)c1 [Example A-034, 1-[5-(3′-Chloro-2-fluoro-6-methoxy-biphenyl-3-ylmethyl)-pyridine-2-carbonyl]-piperidine-4-carboxylic acid] | 4.40 to 4.70 | > 5.30 | – | – |
| CCOC(=O)CNC(=O)Nc1nnc(Cc2ccc(OC)c(-c3cccc(Cl)c3)c2F)s1 [Example A-024, {3-[5-(3′-Chloro-2-fluoro-6-methoxy-biphenyl-3-ylmethyl)-[1,3,4]thiadiazol-2-yl]-ureido}-acetic acid ethyl ester] | – | > 5.30 | – | – |
| COc1ccc(Cc2ccc(NCC(=O)O)nc2)c(F)c1-c1cccc(Cl)c1 [Example A-035, [5-(3′-chloro-2-fluoro-6-methoxy-biphenyl-3-ylmethyl)-pyridin-2-ylamino]-acetic acid] | > 5.30 | > 5.30 | – | – |
| COC(=O)[C@H]1C[C@H](O)CN1Cc1ccc(OC)c(-c2cccc([N+](=O)[O-])c2)c1 [Example A-005, (2R,4S)-4-Hydroxy-1-(6-methoxy-3′-nitro-biphenyl-3-ylmethyl)-pyrrolidine-2-carboxylic acid methyl ester] | – | 4.40 to 4.70 | – | – |
| CCOC(=O)C1CCN(C(=O)c2ccc(Cc3ccc(OC)c(-c4cccc(Cl)c4)c3F)cn2)CC1 [Example A-033, 1-[5-(3′-Chloro-2-fluoro-6-methoxy-biphenyl-3-ylmethyl)-pyridine-2-carbonyl]-piperidine-4-carboxylic acid ethyl ester] | – | > 5.30 | – | – |
| COc1ccc(Cc2ccc(NC(=O)NCC(=O)O)cc2)c(F)c1-c1cccc(Br)c1 [Example A-022, {3-[4-(3′-Bromo-2-fluoro-6-methoxy-biphenyl-3-ylmethyl)-phenyl]-ureido}-acetic acid] | – | > 5.30 | – | – |
| CCOC(=O)CCNC(=O)Nc1nnc(Cc2ccc(OC)c(-c3cccc(Cl)c3)c2F)s1 [Example A-025, 3-{3-[5-(3′-Chloro-2-fluoro-6-methoxy-biphenyl-3-ylmethyl)-[1,3,4]thiadiazol-2-yl]-ureido}-propionic acid ethyl ester] | – | > 5.30 | – | – |
| COC(=O)C1CCN(c2ncc(Cc3ccc(OC)c(-c4cccc(Cl)c4)c3F)cn2)C1 (stereo not shown) [Example A-045, 1-[5-(3′-Chloro-2-fluoro-6-methoxy-biphenyl-3-ylmethyl)-pyrimidin-2-yl]-pyrrolidine-3-carboxylic acid methyl ester] | – | > 5.30 | – | – |
| COc1ccc(Cc2ccc(F)cc2)cc1-c1ccc[n+]([O-])c1 [Example B-084, 3-[5-(4-Fluoro-benzyl)-2methoxy-phenyl]-pyridine 1-oxide] | – | 4.70 to 5.30 | – | – |
| CN(CC(=O)O)c1ccc(Cc2ccc(OC(F)F)c(-c3cccc(Cl)c3)c2)cn1 [Example A-078, {[5-(3′-Chloro-6-difluoromethoxy-biphenyl-3-ylmethyl)-pyridin-2-yl]-methyl-amino}-acetic acid] | – | > 5.30 | – | – |
| CCOC(=O)c1cn2cc(Cc3ccc(OC)c(-c4cccc(Cl)c4)c3F)ccc2n1 [Example A-039, 6-(3′-Chloro-2-fluoro-6-methoxy-biphenyl-3-ylmethyl)-imidazo[1,2-a]pyridine-2-carboxylic acid ethyl ester] | – | > 5.30 | – | – |
| COc1ccc(Cc2ccc(N3CCC3C(=O)O)nc2)c(F)c1-c1cccc(Cl)c1 (stereo not shown) [Example A-055, 1-[5-(3′-chloro-2-fluoro-6-methoxy-biphenyl-3-ylmethyl)-pyridin-2-yl]-azetidine-2-carboxylic acid] | – | – | > 5.30 | – |
| C[C@H](C(=O)O)N(C)c1ccc(Cc2ccc(OC(F)F)c(-c3cccc(Cl)c3)c2)cn1 [Example A-079, (R)-2-{[5-(3′-Chloro-6-difluoromethoxy-biphenyl-3-ylmethyl)-pyridin-2-yl]-methyl-amino}-propionic acid] | – | > 5.30 | – | – |
| COc1ccc(Cc2nnc(NC(=O)NCC(=O)O)s2)c(F)c1-c1cccc(Cl)c1 [Example A-026, {3-[5-(3′-Chloro-2-fluoro-6-methoxy-biphenyl-3-ylmethyl)-[1,3,4]thiadiazol-2-yl]-ureido}-acetic acid] | – | > 5.30 | – | – |
| CCOC(=O)CCNC(=O)Nc1ccc(Cc2ccc(OC)c(-c3cccc(Cl)c3)c2F)cn1 [Example A-029] | – | > 5.30 | – | – |
